Test results from ChEMBL document CHEMBL1914411, “Synthesis of lipophilic dimeric C-7/C-7-linked ciprofloxacin and C-6/C-6-linked levofloxacin derivatives. Versatile in vitro biological evaluations of monomeric and dimeric fluoroquinolone derivatives as potential antitumor, antibacterial or antimycobacterial agents” (Eur J Med Chem, 2011).
Converted amounts (≈) assume the structure as drawn. The source made the active and inactive calls. The rule behind the calls is not given here.

Key:
Enterococcus hirae = experiment: Antimicrobial activity against Enterococcus hirae CIP 5855 after 18 to 24 hrs by broth microdilution method; assay type: functional
[1] = tested on: Mycobacterium tuberculosis; experiment: Antimycobacterial activity against Mycobacterium tuberculosis H37Rv assessed as growth inhibition at 10 uM after 6 days by MTT colorimetric microassay; assay type: functional; conditions: 144 h, read-out: GI
[2] = tested on: Mycobacterium tuberculosis; experiment: Antimycobacterial activity against Mycobacterium tuberculosis H37Rv assessed as growth inhibition at 0.1 uM after 6 days by MTT colorimetric microassay; assay type: functional, organism-based
Escherichia coli = experiment: Antimicrobial activity against Escherichia coli CIP 53126 after 18 to 24 hrs by broth microdilution method; assay type: functional
Staphylococcus aureus [3] = experiment: Antimicrobial activity against Staphylococcus aureus CIP 4.83 after 18 to 24 hrs by broth microdilution method; assay type: functional
Pseudomonas aeruginosa = experiment: Antimicrobial activity against Pseudomonas aeruginosa CIP 82.118 after 18 to 24 hrs by broth microdilution method; assay type: functional
Staphylococcus aureus [4] = experiment: Antimicrobial activity against methicillin-resistant Staphylococcus aureus ATCC 33591 after 18 to 24 hrs by broth microdilution method; assay type: functional
Staphylococcus aureus [5] = experiment: Antimicrobial activity against multidrug-resistant Staphylococcus aureus isolate 1 after 18 to 24 hrs by broth microdilution method; assay type: functional
Staphylococcus aureus [6] = experiment: Antimicrobial activity against multidrug-resistant Staphylococcus aureus isolate 2 after 18 to 24 hrs by broth microdilution method; assay type: functional
Staphylococcus aureus [7] = experiment: Antimicrobial activity against methicillin-resistant Staphylococcus aureus ATCC 33592 after 18 to 24 hrs by broth microdilution method; assay type: functional

Compound	MBC (Enterococcus hirae) [µM]	MIC (Enterococcus hirae) [µM]	inhibition of growth at 10 µM [1] [%]	growth inhibition (GI) [2]	MBC (Escherichia coli) [µM]	MIC (Escherichia coli) [µM]	MBC (Staphylococcus aureus [3]) [µM]	MIC (Staphylococcus aureus [3]) [µM]	MBC (Pseudomonas aeruginosa) [µM]	MIC (Pseudomonas aeruginosa) [µM]	MBC (Staphylococcus aureus [4]) [µM]	MIC (Staphylococcus aureus [4]) [µM]	MBC (Staphylococcus aureus [5]) [µM]	MIC (Staphylococcus aureus [5]) [µM]	MBC (Staphylococcus aureus [6]) [µM]	MIC (Staphylococcus aureus [6]) [µM]	MBC (Staphylococcus aureus [7]) [µM]	MIC (Staphylococcus aureus [7]) [µM]
CCCCCCCCCCCCCC(=O)OCC(=O)N1CCN(c2cc3c(cc2F)c(=O)c(C(=O)O)cn3C2CC2)CC1	31.2 (≈ 18.7 µg/mL)	31.2 (≈ 18.7 µg/mL)	> 95	inactive	500 (≈ 300 µg/mL)	125 (≈ 75 µg/mL)	7.8 (≈ 4.68 µg/mL)	7.8 (≈ 4.68 µg/mL)	250 (≈ 150 µg/mL)	125 (≈ 75 µg/mL)								
C[C@H]1COc2c(N3CCN(C)CC3)c(F)cc3c(=O)c(C(=O)NCCCCCCCCNC(=O)c4cn5c6c(c(N7CCN(C)CC7)c(F)cc6c4=O)OC[C@@H]5C)cn1c23	125 (≈ 104 µg/mL)	62.5 (≈ 51.9 µg/mL)	60	inactive	3.9 (≈ 3.24 µg/mL)	3.9 (≈ 3.24 µg/mL)	15.6 (≈ 13 µg/mL)	15.6 (≈ 13 µg/mL)	250 (≈ 208 µg/mL)	62.5 (≈ 51.9 µg/mL)								
CCCCCCCCCCCCNC(=O)c1cn2c3c(c(N4CCN(C)CC4)c(F)cc3c1=O)OC[C@@H]2C	3.9 (≈ 2.06 µg/mL)	3.9 (≈ 2.06 µg/mL)	> 95	inactive	500 (≈ 264 µg/mL)	125 (≈ 66.1 µg/mL)	15.6 (≈ 8.25 µg/mL)	3.9 (≈ 2.06 µg/mL)	250 (≈ 132 µg/mL)	62.5 (≈ 33 µg/mL)								
CCCCCCCCCC(=O)OCOC(=O)c1cn2c3c(c(N4CCN(C)CC4)c(F)cc3c1=O)OC[C@@H]2C	1.9 (≈ 1.04 µg/mL)	≤ 0.97	> 95	inactive	≤ 0.97	≤ 0.97	≤ 0.97	≤ 0.97	3.9 (≈ 2.13 µg/mL)	≤ 0.97								
C[C@H]1COc2c(N3CCN(C)CC3)c(F)cc3c(=O)c(C(=O)NCCCCCNC(=O)c4cn5c6c(c(N7CCN(C)CC7)c(F)cc6c4=O)OC[C@@H]5C)cn1c23	250 (≈ 197 µg/mL)	125 (≈ 98.6 µg/mL)	60	inactive	62.5 (≈ 49.3 µg/mL)	62.5 (≈ 49.3 µg/mL)	500 (≈ 394 µg/mL)	125 (≈ 98.6 µg/mL)	250 (≈ 197 µg/mL)	62.5 (≈ 49.3 µg/mL)								
CCCCCCCCCCCCCCNC(=O)c1cn2c3c(c(N4CCN(C)CC4)c(F)cc3c1=O)OC[C@@H]2C	3.9 (≈ 2.17 µg/mL)	3.9 (≈ 2.17 µg/mL)	> 95	inactive	250 (≈ 139 µg/mL)	125 (≈ 69.6 µg/mL)	31.2 (≈ 17.4 µg/mL)	7.8 (≈ 4.34 µg/mL)	250 (≈ 139 µg/mL)	62.5 (≈ 34.8 µg/mL)								
O=C(CCCCCCCCC(=O)OCN1CCN(c2cc3c(cc2F)c(=O)c(C(=O)O)cn3C2CC2)CC1)OCN1CCN(c2cc3c(cc2F)c(=O)c(C(=O)O)cn3C2CC2)CC1	250 (≈ 222 µg/mL)	62.5 (≈ 55.6 µg/mL)	62	inactive	62.5 (≈ 55.6 µg/mL)	31.2 (≈ 27.7 µg/mL)	250 (≈ 222 µg/mL)	31.2 (≈ 27.7 µg/mL)	125 (≈ 111 µg/mL)	31.2 (≈ 27.7 µg/mL)								
CCCCCC(=O)OCOC(=O)c1cn2c3c(c(N4CCN(C)CC4)c(F)cc3c1=O)OC[C@@H]2C			> 95	inactive														
CC(C)(C)C(=O)N1CCN(c2cc3c(cc2F)c(=O)c(C(=O)O)cn3C2CC2)CC1	7.8 (≈ 3.24 µg/mL)	7.8 (≈ 3.24 µg/mL)		inactive	31.2 (≈ 13 µg/mL)	15.6 (≈ 6.48 µg/mL)	≤ 0.97	≤ 0.48	250 (≈ 104 µg/mL)	62.5 (≈ 26 µg/mL)	0.48 (≈ 0.199 µg/mL)	0.48 (≈ 0.199 µg/mL)	500 (≈ 208 µg/mL)	31.2 (≈ 13 µg/mL)	31.2 (≈ 13 µg/mL)	31.2 (≈ 13 µg/mL)	0.48 (≈ 0.199 µg/mL)	0.24 (≈ 0.0997 µg/mL)
O=C(CCCCCCCCCCC(=O)OCN1CCN(c2cc3c(cc2F)c(=O)c(C(=O)O)cn3C2CC2)CC1)OCN1CCN(c2cc3c(cc2F)c(=O)c(C(=O)O)cn3C2CC2)CC1	31.2 (≈ 28.6 µg/mL)	31.2 (≈ 28.6 µg/mL)		inactive	62.5 (≈ 57.3 µg/mL)	31.2 (≈ 28.6 µg/mL)	≤ 0.97	≤ 0.97	125 (≈ 115 µg/mL)	62.5 (≈ 57.3 µg/mL)	3.9 (≈ 3.58 µg/mL)	1.9 (≈ 1.74 µg/mL)	250 (≈ 229 µg/mL)	125 (≈ 115 µg/mL)	250 (≈ 229 µg/mL)	62.5 (≈ 57.3 µg/mL)	0.48 (≈ 0.44 µg/mL)	0.24 (≈ 0.22 µg/mL)
O=C(O)c1cn(C2CC2)c2cc(N3CCN(C(=O)Cc4ccccc4)CC3)c(F)cc2c1=O	7.8 (≈ 3.51 µg/mL)	3.9 (≈ 1.75 µg/mL)		inactive	7.8 (≈ 3.51 µg/mL)	3.9 (≈ 1.75 µg/mL)	≤ 0.24	≤ 0.12	250 (≈ 112 µg/mL)	62.5 (≈ 28.1 µg/mL)	0.24 (≈ 0.108 µg/mL)	0.12 (≈ 0.0539 µg/mL)	62.5 (≈ 28.1 µg/mL)	31.2 (≈ 14 µg/mL)	15.6 (≈ 7.01 µg/mL)	15.6 (≈ 7.01 µg/mL)	0.24 (≈ 0.108 µg/mL)	0.12 (≈ 0.0539 µg/mL)
O=C(CCCCCCCCCCCCCCC(=O)OCN1CCN(c2cc3c(cc2F)c(=O)c(C(=O)O)cn3C2CC2)CC1)OCN1CCN(c2cc3c(cc2F)c(=O)c(C(=O)O)cn3C2CC2)CC1	62.5 (≈ 60.8 µg/mL)	31.2 (≈ 30.4 µg/mL)		inactive	15.6 (≈ 15.2 µg/mL)	7.8 (≈ 7.59 µg/mL)	≤ 0.97	≤ 0.97	250 (≈ 243 µg/mL)	62.5 (≈ 60.8 µg/mL)	15.6 (≈ 15.2 µg/mL)	7.8 (≈ 7.59 µg/mL)	500 (≈ 487 µg/mL)	125 (≈ 122 µg/mL)	500 (≈ 487 µg/mL)	125 (≈ 122 µg/mL)	1.9 (≈ 1.85 µg/mL)	0.97 (≈ 0.944 µg/mL)
